Where two headings read alike, the source gives them in different places.
Legend:
L929 cells = test: cytotoxicity to L929 cells, MTT assay (viability and replication); type: cell-based; parameters: Toxicity, Mean: unit not given here; conditions: L929 cells; for Toxicity, Mean: MTT; for inhibition at 0.1 µM / inhibition at 1 µM / inhibition at 10 µM / inhibition at 50 µM: Mus musculus, read-out: Toxicity, % of control (inhibition)
Experimental: Toxoplasma gondii is the causative agent of cerebral toxoplasmic encephalitis, an AIDS-related opportunistic infection. The biological activity of the endoperoxide JHU 2886 of the present invention was measured against Toxoplasma gondii cultured in L929 cells.
More specifically, the cytotoxicity of synthetic organic endoperoxide JHU 2886 was tested in L929 cells by measuring the viability and replication of exposed cells. The cytotoxicity of the compound to the cultured cells was measured using the MTT assay (Promega kit), according to the procedure of Carmichael et al. (18). MTT is an abbreviation for [3-(4,5-dimethylthiazol-2-yl)-2,5-dephenyltetrazolium bromide].
This compound is referred to as JHU 2886 in Table 1. In this experiment atovaquone and artemisinin were used as positive controls. Atovaquone is a broad-spectrum anti-infective drug having antimalarial and antitoxoplasmosis activity (19).
^1 The cytotoxicity of each compound for the cultured cells was
measured using the MTT assay (Promega kit) and inhibition of the […]

Toxoplasma gondii = test: inhibition of intracellular replication of T. gondii in infected L929 cells, uracil incorporation assay; type: cell-based; parameters: Activity, Mean: unit not given here; conditions: for Activity, Mean: uracil incorporation; for inhibition at 0.1 µM / inhibition at 1 µM / inhibition at 10 µM / inhibition at 50 µM: Toxoplasma gondii, L929, read-out: Activity, % of control (inhibition)
Experimental: Toxoplasma gondii is the causative agent of cerebral toxoplasmic encephalitis, an AIDS-related opportunistic infection. The biological activity of the endoperoxide JHU 2886 of the present invention was measured against Toxoplasma gondii cultured in L929 cells. The inhibitory activity of the synthetic organic endoperoxide was tested by measuring the intracellular replication of T. gondii in infected L929 cells. The inhibition of the intracellular replication of T. gondii was determined using the uracil incorporation assay (20). […] This compound is referred to as JHU 2886 in Table 1. In this experiment atovaquone and artemisinin were used as positive controls. Atovaquone is a broad-spectrum anti-infective drug having antimalarial and antitoxoplasmosis activity (19). | measured using the MTT assay (Promega kit) and inhibition of the | intracellular replication of T. gondii was determined using the uracil | incorporation assay.

O=C1C(O)=C([C@H]2CC[C@H](c3ccc(Cl)cc3)CC2)C(=O)c2ccccc21 [Atovaquone]
Toxicity, Score (L929 cells; 24 hours, dose 0.1 μM): 1 (≤20%) | Toxicity, Mean (L929 cells; 24 hours, dose 0.1 μM): 0.095 | Toxicity, Score (L929 cells; 24 hours, dose 1.0 μM): 1 (≤20%) | Toxicity, Mean (L929 cells; 24 hours, dose 1.0 μM): 0.093 | Toxicity, Score (L929 cells; 24 hours, dose 10.0 μM): 1 (≤20%) | Toxicity, Mean (L929 cells; 24 hours, dose 10.0 μM): 0.092 | Toxicity, Score (L929 cells; 24 hours, dose 50.0 μM): 2 (>20%-≤40%) | Toxicity, Mean (L929 cells; 24 hours, dose 50.0 μM): 0.089 | Toxicity, Score (L929 cells; 48 hours, dose 0.1 μM): 0 | Toxicity, Mean (L929 cells; 48 hours, dose 0.1 μM): 0.214 | Toxicity, Score (L929 cells; 48 hours, dose 1.0 μM): 1 (≤20%) | Toxicity, Mean (L929 cells; 48 hours, dose 1.0 μM): 0.211 | Toxicity, Score (L929 cells; 48 hours, dose 10.0 μM): 1 (≤20%) | Toxicity, Mean (L929 cells; 48 hours, dose 10.0 μM): 0.204 | Toxicity, Score (L929 cells; 48 hours, dose 50.0 μM): 3 (>40%-≤70%) | Toxicity, Mean (L929 cells; 48 hours, dose 50.0 μM): 0.106 | Toxicity, Score (L929 cells; 72 hours, dose 0.1 μM): 0 | Toxicity, Mean (L929 cells; 72 hours, dose 0.1 μM): 0.473 | Toxicity, Score (L929 cells; 72 hours, dose 1.0 μM): 0 | Toxicity, Mean (L929 cells; 72 hours, dose 1.0 μM): 0.464 | Toxicity, Score (L929 cells; 72 hours, dose 10.0 μM): 0 | Toxicity, Mean (L929 cells; 72 hours, dose 10.0 μM): 0.456 | Toxicity, Score (L929 cells; 72 hours, dose 50.0 μM): 3 (>40%-≤70%) | Toxicity, Mean (L929 cells; 72 hours, dose 50.0 μM): 0.161 | inhibition at 0.1 µM (L929 cells; 24 hours, dose 0.1 μM): 15.6% | inhibition at 1 µM (L929 cells; 24 hours, dose 1.0 μM): 17.4% | inhibition at 10 µM (L929 cells; 24 hours, dose 10.0 μM): 18.3% | inhibition at 50 µM (L929 cells; 24 hours, dose 50.0 μM): 21.2% | inhibition at 0.1 µM (L929 cells; 48 hours, dose 0.1 μM): 0% | inhibition at 1 µM (L929 cells; 48 hours, dose 1.0 μM): 1.09% | inhibition at 10 µM (L929 cells; 48 hours, dose 10.0 μM): 4.53% | inhibition at 50 µM (L929 cells; 48 hours, dose 50.0 μM): 50.2% | inhibition at 0.1 µM (L929 cells; 72 hours, dose 0.1 μM): 0% | inhibition at 1 µM (L929 cells; 72 hours, dose 1.0 μM): 0% | inhibition at 10 µM (L929 cells; 72 hours, dose 10.0 μM): 0% | inhibition at 50 µM (L929 cells; 72 hours, dose 50.0 μM): 63.2% | therapeutic index (ratio of activity to toxicity), quotient (Toxoplasma gondii; 1 μM, T. gondii activity / L929 toxicity): 5.6 | Activity, Score (Toxoplasma gondii; 24 hours, dose 0.1 μM): 4 (>70%-≤90%) | Activity, Mean (Toxoplasma gondii; 24 hours, dose 0.1 μM): 3096 | Activity, Score (Toxoplasma gondii; 24 hours, dose 1.0 μM): 5 (>90%) | Activity, Mean (Toxoplasma gondii; 24 hours, dose 1.0 μM): 693 | Activity, Score (Toxoplasma gondii; 24 hours, dose 10.0 μM): 5 (>90%) | Activity, Mean (Toxoplasma gondii; 24 hours, dose 10.0 μM): 612 | Activity, Score (Toxoplasma gondii; 24 hours, dose 50.0 μM): 5 (>90%) | Activity, Mean (Toxoplasma gondii; 24 hours, dose 50.0 μM): 1042 | Activity, Score (Toxoplasma gondii; 48 hours, dose 0.1 μM): 3 (>40%-≤70%) | Activity, Mean (Toxoplasma gondii; 48 hours, dose 0.1 μM): 6865 | Activity, Score (Toxoplasma gondii; 48 hours, dose 1.0 μM): 5 (>90%) | Activity, Mean (Toxoplasma gondii; 48 hours, dose 1.0 μM): 729 | Activity, Score (Toxoplasma gondii; 48 hours, dose 10.0 μM): 5 (>90%) | Activity, Mean (Toxoplasma gondii; 48 hours, dose 10.0 μM): 399 | Activity, Score (Toxoplasma gondii; 48 hours, dose 50.0 μM): 5 (>90%) | Activity, Mean (Toxoplasma gondii; 48 hours, dose 50.0 μM): 236 | Activity, Score (Toxoplasma gondii; 72 hours, dose 0.1 μM): 3 (>40%-≤70%) | Activity, Mean (Toxoplasma gondii; 72 hours, dose 0.1 μM): 2940 | Activity, Score (Toxoplasma gondii; 72 hours, dose 1.0 μM): 4 (>70%-≤90%) | Activity, Mean (Toxoplasma gondii; 72 hours, dose 1.0 μM): 1272 | Activity, Score (Toxoplasma gondii; 72 hours, dose 10.0 μM): 5 (>90%) | Activity, Mean (Toxoplasma gondii; 72 hours, dose 10.0 μM): 446 | Activity, Score (Toxoplasma gondii; 72 hours, dose 50.0 μM): 5 (>90%) | Activity, Mean (Toxoplasma gondii; 72 hours, dose 50.0 μM): 230 | inhibition at 0.1 µM (Toxoplasma gondii; 24 hours, dose 0.1 μM): 78.4% | inhibition at 1 µM (Toxoplasma gondii; 24 hours, dose 1.0 μM): 95.2% | inhibition at 10 µM (Toxoplasma gondii; 24 hours, dose 10.0 μM): 95.7% | inhibition at 50 µM (Toxoplasma gondii; 24 hours, dose 50.0 μM): 92.7% | inhibition at 0.1 µM (Toxoplasma gondii; 48 hours, dose 0.1 μM): 60.1% | inhibition at 1 µM (Toxoplasma gondii; 48 hours, dose 1.0 μM): 95.8% | inhibition at 10 µM (Toxoplasma gondii; 48 hours, dose 10.0 μM): 97.7% | inhibition at 50 µM (Toxoplasma gondii; 48 hours, dose 50.0 μM): 98.6% | inhibition at 10 µM (Toxoplasma gondii; 72 hours, dose 10.0 μM): 93.8% | inhibition at 50 µM (Toxoplasma gondii; 72 hours, dose 50.0 μM): 96.8%
